Earlier results as cited in patent US20100272830A1, “Biocide Combination for use in Agricultural Applications” (Industrie De Nora S.p.A., priority 2008, published 2010).
Like-named read-outs stand apart in the source and are kept apart here.

## OCl [Hypochlorous acid (HClO), Hypochlorous acid]
pH 5, 25° C.
  HClO, % of total hypochlorite concentration: 99.7%
pH 6, 25° C.
  HClO, % of total hypochlorite concentration: 96.9%
pH 7, 25° C.
  HClO, % of total hypochlorite concentration: 76.0%
pH 8, 25° C.
  HClO, % of total hypochlorite concentration: 24%
pH 9, 25° C.
  HClO, % of total hypochlorite concentration: 3.1%
pH 10, 25° C.
  HClO, % of total hypochlorite concentration: 0.31%
pH 11, 25° C.
  HClO, % of total hypochlorite concentration: 0.03%
pH 12, 25° C.
  HClO, % of total hypochlorite concentration: 0.003%
